Results as given in ChEMBL document CHEMBL1154926, “Cyanolide A, a glycosidic macrolide with potent Molluscicidal activity from the Papua New Guinea cyanobacterium Lyngbya bouillonii” (J Nat Prod, 2010).

What was measured:
NCI-H460 = assay: Cytotoxicity against human H460 cells at 35 uM; format: functional, cell-based
[1] = Toxicity in brine shrimp; format: organism-based; settings: artemia, in vivo
N2a = assay: Cytotoxicity against mouse Neuro2a cells at 35 uM; format: functional, cell-based
Biomphalaria glabrata = assay: Molluscicidal activity against Biomphalaria glabrata after 24 hrs; format: functional

For CC[C@@H]1C[C@@H]2C[C@H](O[C@@H]3OC[C@@H](OC)[C@H](OC)[C@H]3OC)C(C)(C)[C@H](CC(=O)O[C@H](CC)C[C@@H]3C[C@H](O[C@@H]4OC[C@@H](OC)[C@H](OC)[C@H]4OC)C(C)(C)[C@H](CC(=O)O1)O3)O2 [CYANOLIDE A], the Activity (NCI-H460) was “Not toxic”, the LC50 [1] was 10.8 µM and the Activity (N2a) was “Not toxic”. It also gave an LC50 (Biomphalaria glabrata) of 1.2 µM.
